Test results reported in US20160264593A1 (priority 2013, published 2016).
Blank lines part the entries; values can stand above or below the compound they belong to.

Experiment: in vivo
Set-up: species or system SD rats
Details: rat, 1.4 mg/kg; for Kp: AUC(0-t) ratio of liver over plasma
Method: 113 was dissolved in 4% NaHCO3 in saline for IV administration. The detailed procedure of dosing solution preparation was presented in Appendix I.
15 animals were placed on the study. The animals in IV arm were free access to food and water. For PO dose group, the animals were fasted overnight prior to dosing and the food was resumed 4 hours postdose.
One extra animal was used for blank liver, brain and plasma generation (5 mL per animal). The resulting blank liver, brain and plasma were then applied to the development of bioanalytical method and sample bioanalysis for the entire study.
The IV injection was conducted via foot dorsal vein. PO via oral gavage.
Blood collection: The animal is restrained manually. Approximately 200 μL of blood/time point is collected into sodium heparin tube via cardiac puncture for terminal bleeding (anesthetized under carbon dioxide). Blood sample will be put on ice and centrifuged to obtain plasma sample (2000 g, 5 min under 4° C.) within 10 minutes.
Liver collection: The animal will be euthanized with carbon dioxide inhalation. Open abdominal cavity with scissor to expose internal organs. Hold the carcass in an upright position and allow the organs to fall forward. Cut the connective tissues and remove the organs. Then the organs are rinsed with cold saline, dried on filtrate paper, placed into a screw-top tube and weighed, snap frozen by placing into dry-ice immediately.
Brain collection: Make a mid-line incision in the animals scalp and retract the skin. Using small bone cutters and rongeurs, remove the skull overlying the brain. Remove the brain using a spatula and rinse with cold saline, dried on filtrate paper, placed into a screw-top tube and weighed, snap frozen by placing into dry-ice immediately. Brain tissue will be homogenized for 2 min with 3 volumes (v/w) of homogenizing solution (PBS pH 7.4) right before analysis. Plasma, brain and liver samples were stored at approximately −80° C. until analysis. The backup samples will be discarded after three weeks after in-life completion unless requested. The unused dosing solutions will be discarded within three weeks after completion of the study.
The PK parameters were determined by non-compartmental model of non-compartmental analysis tool, Pharsight Phoenix WinNonlin® 6.2 software.
Concentration data within 80%-120% of LLOQ was considered within normal instrumental variation and presented in the results.
Time points were automatic selected by “best fit” model for terminal half life estimation as the first option. Manual selection was applied when “best fit” could not well define the terminal phase.

[1] = male, Sprague-Dawley (SD), iv, 6 hr
[2] = male, SD, iv, Liver-plasma concentration ratio of 113
[3] = male, SD, iv, liver concentration of 113
[4] = male, SD, iv, plasma concentration of 113
[5] = male, SD, po, plasma concentration of 113
[6] = male, Sprague-Dawley, iv, Brain-plasma concentration ratio of 113
[7] = male, Sprague-Dawley, iv, brain concentration of 113

Structure (SMILES): CN1CCN(C(=O)C2C3CCC(O3)C2C(=O)O)CC1 (stereo not drawn) [Compound 100, 3-(4-methylpiperazine-1-carbonyl)-7-oxa-bicyclo[2,2,1]-heptane-2-carboxylic acid]
AUC(0-inf) (male, Sprague-Dawley (SD), iv): 2830 ng·h/mL
AUC(0-t) (male, Sprague-Dawley (SD), iv): 2800 ng·h/mL
AUC(0-t) of 100 (male, Sprague-Dawley (SD), iv): 703 ng·h/mL
AUC(0-∞) of 100 (male, Sprague-Dawley (SD), iv): 707 ng·h/mL
Tmax (male, Sprague-Dawley (SD), iv): 15 min
Tmax of 100 (male, Sprague-Dawley (SD), iv): 15 min
Liver-plasma concentration ratio of 100 [1]: 7.32
plasma concentration of 100 [1]: 3.25 ng/mL
AUC(0-last) of 100 in plasma (male, Sprague-Dawley, iv): 703 ng·h/mL
AUC(0-t) ratio of liver over plasma, 100 (male, Sprague-Dawley, iv): 399
AUC(0-∞) of 100 in plasma (male, Sprague-Dawley, iv): 707 ng·h/mL
Cmax of 100 in liver (male, Sprague-Dawley, iv): 1895 ng/g
Cmax of 100 in plasma (male, Sprague-Dawley, iv): 554 ng/mL
Tmax of 100 in liver (male, Sprague-Dawley, iv): 15 min
Tmax of 100 in plasma (male, Sprague-Dawley, iv): 15 min
plasma concentration of 100 (male, Sprague-Dawley, iv, 6 h): 3.25 ng/mL
AUC(0-last) of 100 in liver (iv): 2804 ng·h/g
AUC(0-∞) of 100 in liver (iv): 2834 ng·h/g
AUClast-liver/AUClast-plasma of 100 (iv): 399

Liver-plasma concentration ratio of 113 (male, SD, iv, 1 h): 1.18
AUC(0-t) (male, SD, iv, AUClast of 113 in plasma): 155 ng·h/mL
Kp at 0.25 h [2]: 0.321
Kp at 1 h [2]: 1.35
concentration at 0.25 h [3]: 55.5 ng/g
concentration at 1 h [3]: 14.6 ng/g
concentration at 0.25 h [4]: 173 ng/mL
concentration at 1 h [4]: 10.8 ng/mL
plasma concentration of 113 (male, SD, po, 2 h): 2.15 ng/mL
concentration at 0.25 h [5]: 18.3 ng/mL
concentration at 1 h [5]: 4.61 ng/mL
concentration at 2 h [5]: 2.15 ng/mL
Cmax of 113 (male, Sprague-Dawley (SD), iv): 90.4 ng/mL
Tmax (male, Sprague-Dawley (SD), iv): 15 min
Cmax (male, Sprague-Dawley (SD), iv, Cmax of 113): 46.2 ng/mL
F of 113 (male, Sprague-Dawley (SD), po): 10.1%
Tmax (male, Sprague-Dawley (SD), po): 15 min
AUC(0-t) (male, Sprague-Dawley (SD), po, AUC(0-t) of 113): 15.7 ng·h/mL
Cmax (male, Sprague-Dawley (SD), po, Cmax of 113): 17.7 ng/mL
bioavailability (male, Sprague-Dawley): 10.1%
Tmax (male, Sprague-Dawley, iv): 15 min
Kp (male, Sprague-Dawley, iv, 113): 18.1
Kp (male, Sprague-Dawley, iv, 113 (printed in the brain paragraph)): 30.6
Kp at 0.25 h [6]: 0.498
Kp at 1 h [6]: 0.537
Cmax (male, Sprague-Dawley, iv, Cmax of 113 in brain): 90.4 ng/g
Cmax (male, Sprague-Dawley, iv, Cmax of 113 in liver): 46.2 ng/g
Kp at 1 h (male, Sprague-Dawley, iv, Liver-plasma concentration ratio of 113): 1.27
concentration at 0.25 h [7]: 86.2 ng/g
concentration at 1 h [7]: 5.8 ng/g
Tmax (male, Sprague-Dawley, po): 15 min
AUC(0-t) (male, Sprague-Dawley, po, AUClast of 113 in plasma): 15.7 ng·h/mL
Cmax (male, Sprague-Dawley, po, Cmax of 113 in plasma): 17.7 ng/mL
AUC(0-last) of 113 in brain (iv): 47.5 ng·h/g
AUC(0-last) of 113 in liver (iv): 28.1 ng·h/g
Structure (SMILES): CN1CCN(C(=O)C2C(C(=O)OCC(Cl)(Cl)Cl)[C@H]3CC[C@@H]2O3)CC1 (stereo partly drawn) [Compound 113]
